# Source: paper PMC5704035 (Biochemistry and Biophysics Reports, 2017)
# Biological target: AzoA (Enterococcus faecalis, UniProt Q831B2)
# Experiment: spectroscopy of purified protein, FMN to protein molar ratio
# Type: binding
# Details: co-purified flavin; two sites per homodimer
# AzoA, sequence (Q831B2 whole entry): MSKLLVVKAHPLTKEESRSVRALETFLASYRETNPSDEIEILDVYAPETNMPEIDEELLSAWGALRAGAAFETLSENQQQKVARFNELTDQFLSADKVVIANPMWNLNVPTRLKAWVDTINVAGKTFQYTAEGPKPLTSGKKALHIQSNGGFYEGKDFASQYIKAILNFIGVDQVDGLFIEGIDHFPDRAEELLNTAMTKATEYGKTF
smiles,measurement,value
Cc1cc2nc3c(=O)[nH]c(=O)nc-3n(C[C@H](O)[C@H](O)[C@H](O)COP(=O)(O)O)c2cc1C [FMN],"spectroscopy of purified protein, FMN to protein molar ratio",suggesting that two FMN molecules bind to an AzoA (wild-type and mutants)
